Source: US12636291B2, “Compositions and methods relating to use of agonists of ALPHA5-containing GABAA receptors” (Centre for Addiction and Mental Health, priority 2019, dated 2026)

Tested on: pyramidal cells in the CA1 region of the hippocampus
Experiment: Golgi staining morphological analysis of CA1 pyramidal cells
Type: in vivo, mouse
Settings: for total spine counts, apical dendrites / total spine counts, basal dendrites: FIG. 19B; for overall spine density: FIG. 20A; for spine density, apical dendrites / spine density, basal dendrite: FIG. 20B; for spine density versus branch order, overall: FIG. 21A; for spine density versus branch order, basal dendrites: FIG. 21B; for spine density versus branch order, apical dendrites: FIG. 21C; for spine density at 30 um intervals from the soma, overall: FIG. 22A; for spine density at 30 um intervals from the soma, basal dendrites: FIG. 22B; for spine density at 30 um intervals from the soma, apical dendrites: FIG. 22C
Experimental: Details of the animals, materials, and methods used are provided following the discussion section below. Briefly, all studies discussed below were conducted using three groups of animals designated “Young” (2 months of age at the beginning of the 8-week study, 4 months of age at time of testing; “Old” (22 months of age at beginning of study, 24 months of age at time of testing); and “Treatment” (“Old” mice who received GL-II-73 in the drinking water for 8 weeks prior to evaluation of cognitive ability and pyramidal cell morphology). The last study further included a fourth group of animals, “Treatment+Washout” which were treated the same as the “Treatment” group except that the GL-II-73 was removed for a 1 week “wash-out” period prior to evaluation of pyramidal cell morphology.
We confirmed and extended these findings by conducting similar analyses of pyramidal cells in a different brain region, namely the CA1 region of the hippocampus, using the same animals. […] As observed above for the pyramidal cells of the PFC, the morphology of the CA1 pyramidal cells in the treatment group was very similar to that of the young mice. […] The positive correlation between the morphological changes observed in each of the three groups of animals in both regions of the brain, CA1 vs PFC brain regions is shown in FIGS. 11-12. This positive correlation of morphological changes across these two regions of the brain indicates a common factor underlying the effects in both regions.
We also performed the same morphological analyses of pyramidal cells in the CA1 region of the hippocampus for each group.
Drug preparation and administration: The compound GL-II-73 was administered in the drinking water for 8 weeks, and made fresh every other day to prevent any deterioration of the compound in the water at room temperature. The solution was prepared at 30 mg/kg for an estimated volume of 8 ml/mouse/day, based on previous calculations. For the pilot study in the 5×FAD mouse model, the compound GL-II-73 was prepared for intra peritoneal injection only, at a dose of 10 mg/kg. Vehicle solution was made of 85% distilled water, 14% propylene glycol and 1% tween-80.
Brain collection and Golgi staining: Twenty-four hours after the completion of the behavioral testing, mice were euthanized using cervical dislocation. Brains were carefully collected from the skull, rinsed with MilliQ water and immersed in the Golgi staining solution provided by Neurodigitech (San Diego, CA). Six hours after the beginning of the incubation, the solution was changed to provide fresh solution. Then brains were left incubating for 14 days at room temperature, in the dark. For better results, vials containing the brains were gently swirled 3 times a week. After the incubation period, the staining solution was discarded and replaced by a storage solution and brains (n=4 per group) were shipped to Neurodigitech for morphological analysis.
Sample selection criteria: The sampling process was conducted as follows: The investigators first 1) previewed the entire rostro-caudal axis of ROIs, under low-mag Zeiss objectives (10× and 20×), 2), compared and located those with the least truncations of distal dendrites as possible under high-mag Zeiss objectives (40× and 63×), 3), and then 4) used a Zeiss 100× objective with immersion oil to perform 3D dendritic reconstruction, followed by counting of the spines throughout the entire dendritic trees. The criteria for selecting candidate neurons for analysis were based on i) visualization of a completely filled soma with no overlap of neighboring soma and completely filled dendrites, ii) the tapering of most distal dendrites; iii) the visualization of the complete 3-D profile of dendritic trees using the 3-D display of imaging software. Neurons with incomplete impregnation and/or neurons with truncations due to the plane of sectioning were not collected. […]

[1] = Table 3, Old, Treatment group, 4 samples
[2] = Table 3, Old, Washout group, 4 samples
[3] = first study, Old+Treatment mice
[4] = washout study, Old+Treatment vs Young mice, p>0.05
[5] = washout study, Washout vs Old mice, p<0.05
[6] = washout study, Old+Treatment vs Old mice, p<0.05

With `C#Cc1ccc2c(c1)C(c1ccccc1F)=N[C@H](C)c1c(C(=O)N(C)C)ncn1-2` (stereo in doubt) [GL-II-73, 8-ethynyl-6-(2-fluorophenyl)-N,N,4-trimethyl-4H-benzo[f]imidazo[1,5-a][1,4]diazepine-3-carboxamide] the Total segments (Table 3, washout study, Old, Treatment group (8 weeks GL-II-73), 4 samples) was 1226, the Overall spinal density [1] was 1.07 and the “Total lengths (microns)” value [1] was 60170 microns. The total spine counts [1] was 64468, the Total segments (Table 3, Old, Washout group (8 weeks GL-II-73, then 1 week wash-out), 4 samples) was 1266 and the Overall spinal density [2] was 1.10. For the same compound, the “Total lengths (microns)” value [2] was 65954 microns, the total spine counts [2] was 72587 and the “Frequency of Intersections × 30 um interval from soma, apical” value [3] was “at 150 um-180 um, apically”. For the same compound, the “Frequency of Intersections × 30 um interval from soma, basal” value [3] was “higher frequency at 120 um-150 um, basally”, the “Frequency of Intersections × 30 um interval from soma” value (first study, Old+Treatment vs Old mice) was “higher frequency of intersections at the middle (120 um to 180 um) of the dendritic field than Old mice” and the spine density (first study, treatment group vs untreated old mice) was “relatively higher spine density than the untreated group of old mice”. The total spine counts (washout study, FIG. 19A, Old+Treatment vs Young mice, p>0.05) was “no difference was found between Young and Old+Treatment as well as Washout mice”, the total spine counts (washout study, FIG. 19A, Washout (1 week after 8 weeks GL-II-73) vs Old mice, p<0.05) was “higher spine counts than Old mice” and the “total spine counts, apical dendrites” value [4] was “no difference in total spine counts of both basal and apical dendrites between Young and Old+Treatment as well as Washout mice”. The “total spine counts, basal dendrites” value [4] was “no difference in total spine counts of both basal and apical dendrites between Young and Old+Treatment as well as Washout mice”, the “total spine counts, apical dendrites” value [5] was “higher spine counts of apical dendrites than Old mice” and the “total spine counts, basal dendrites” value [5] was “higher spine counts of basal dendrites than Old mice”. The overall spine density [6] was “higher spine density than Old mice”, the overall spine density [5] was “higher spine density than Old mice” and the “spine density, apical dendrites” value [6] was “Old mice exhibited a lower spine density than Young, Old+Treatment and Washout mice”. For the same compound, the “spine density, basal dendrite” value [6] was “Old mice showed a significant decrease in the basal dendrite as compared to Young, Old+Treatment and Washout mice”, the “spine density, apical dendrites” value [5] was “Old mice exhibited a lower spine density than Young, Old+Treatment and Washout mice” and the “spine density, basal dendrite” value [5] was “Old mice showed a significant decrease in the basal dendrite as compared to Young, Old+Treatment and Washout mice”. The “spine density versus branch order, overall” value [6] was “higher spine density at the 1st and 5th branch orders”, the “spine density versus branch order, overall” value [5] was “higher spine density at the 1st and 3rd to 6th” and the “spine density versus branch order, basal dendrites” value [6] was “higher density at the 1st branch order than Old mice”. For the same compound, the “spine density versus branch order, basal dendrites” value [5] was “higher density at the 1st branch order than Old mice”, the “spine density versus branch order, apical dendrites” value [6] was “higher density at the 1st order than Old mice” and the “spine density versus branch order, apical dendrites” value [5] was “at the 4th and 5th orders than Old mice”. The “spine density at 30 um intervals from the soma, overall” value [6] was “higher spine density at 30 um to 60 um and 120 um to 240 um from soma”, the “spine density at 30 um intervals from the soma, overall” value [5] was “higher spine density at 30 um to 180 um from soma” and the “spine density at 30 um intervals from the soma, basal dendrites” value [6] was “higher density at 30 um from soma than Old mice”. For the same compound, the “spine density at 30 um intervals from the soma, basal dendrites” value [5] was “higher density at 30 um from soma than Old mice”, the “spine density at 30 um intervals from the soma, apical dendrites” value [6] was “higher density at 120 um to 180 um from soma than Old mice” and the “spine density at 30 um intervals from the soma, apical dendrites” value [5] was “higher spine density at 30 um to 60 um and 120 um to 210 um from soma than Old mice”.
